# Assay results reported in patent US20100004459A1, “2-PHENYLNICOTINIC ACID DERIVATIVE” (NIPPON ZOKI PHARMACEUTICAL CO., LTD., priority 2006, published 2010).
# What was measured:
# xanthine oxidase = molecular target: T1, xanthine oxidase (Bos taurus, UniProt P80457); assay: Test for xanthine oxidase inhibitory activity; format: biochemical; settings: xanthine oxidase derived from milk (Sigma); substrate xanthine; uric acid production at OD 292 nm, 37° C.
# T1 construct: derived from milk; manufactured by Sigma; purchased Sigma; host or cells: milk (natural source)
# Method: Evaluation of inhibitory activity of the present invention to xanthine oxidase was conducted using xanthine as a substrate by measuring the amount of uric acid produced by xanthine oxidase which is an oxidizing enzyme therefor. Thus, xanthine oxidase (0.01 unit/L, 20 μL/well; derived from milk; manufactured by Sigma), diethylenetriamine pentaacetate (0.01 mol/L, 20 μL/well), phosphate buffer (20 μL/well), distilled water (100 μL/well) and a diluted solution (20 μL/well) of a test substance were mixed in a 96-well quartz microplate. After preincubating for 5 minutes in a microplate spectrophotometer warmed at 37° C., xanthine (1 mmol/L, 20 μL/well) was added. The changes with elapse of time in OD 292 nm based on the production of uric acid was measured using a microplate spectrophotometer warmed at 37° C. whereby the initial reaction velocity was measured. Xanthine oxidase inhibitory activity was calculated by the following formula and concentration of the test substance for 50% suppression (IC50 value) was calculated.
# Inhibition Rate(%)={[(Initial Reaction Velocity of the Reaction Control)-(Initial Reaction Velocity upon Addition of Test Substance)]/[Initial Reaction Velocity of the Reaction Control]}×100
# [1] = tested on: model rats of fructose-loaded hypertriglyceridemia; assay: Model rats of fructose-loaded hypertriglyceridemia: action for lowering of triglyceride in serum; format: in vivo; settings: Rattus norvegicus, po; male SD rats, 75% fructose solution for three days; 100 mg/kg orally once daily; serum 2 hours after final administration; read-out: Inhibition Rate (%) Action for lowering of triglyceride
# Method: (§1) The test was conducted according to a method of Kusama, et al. (Folia Pharmacologica Japonica, volume 92, pages 175 to 180, 1988). Thus, male rats of SD strain of 6 to 7 weeks age were made in free access to a 75% (w/v) D(−)-fructose solution for three days. During the period of fructose ingestion, a test substance (100 mg/kg) was suspended in 1% methyl cellulose and orally administered once daily. After 2 hours from the final administration, about 500 μL per rat of blood was collected using a hematocrit capillary from orbital venous plexus under anesthetization with ether and centrifuged (3000 rpm at 4° C. for 20 minutes) whereupon the serum was prepared.
# (1) Action for Lowering of Triglyceride in Serum
# The triglyceride (TG) in the serum was measured by a Triglyceride E-Test Wako (manufactured by Wako Pure Chemical Industries, Ltd.) and each TG lowering rate was determined by the following formula.
# TG Lowering Rate(%)={[(TG Value of Control Animal)−(TG Value of Animal Administered with Test Substance)]/[(TG Value of Control Animal)-(TG Value of Untreated Animal)]}×100
# [2] = tested on: model rats of fructose-loaded hypertriglyceridemia; assay: Model rats of fructose-loaded hypertriglyceridemia: action for lowering of uric acid in serum; format: in vivo; settings: Rattus norvegicus, po; male SD rats, 75% fructose solution for three days; 100 mg/kg orally once daily; serum 2 hours after final administration; read-out: Inhibition Rate (%) Action for lowering of uric acid
# Method: as §1
# (2) Action for Lowering of Uric Acid in Serum
# Uric acid value in the serum was measured by a Uric acid C-Test Wako (manufactured by Wako Pure Chemical Industries, Ltd.) using the above serum and each uric acid lowering rate was determined by the following formula.
# Uric Acid Lowering Rate(%)={[(Uric Acid Value of Control Animal)-(Uric Acid Value of Animals Administered with Test Substance)]/[Uric Acid Value of Control Animal]}×100
# T1 sequence (P80457 whole entry): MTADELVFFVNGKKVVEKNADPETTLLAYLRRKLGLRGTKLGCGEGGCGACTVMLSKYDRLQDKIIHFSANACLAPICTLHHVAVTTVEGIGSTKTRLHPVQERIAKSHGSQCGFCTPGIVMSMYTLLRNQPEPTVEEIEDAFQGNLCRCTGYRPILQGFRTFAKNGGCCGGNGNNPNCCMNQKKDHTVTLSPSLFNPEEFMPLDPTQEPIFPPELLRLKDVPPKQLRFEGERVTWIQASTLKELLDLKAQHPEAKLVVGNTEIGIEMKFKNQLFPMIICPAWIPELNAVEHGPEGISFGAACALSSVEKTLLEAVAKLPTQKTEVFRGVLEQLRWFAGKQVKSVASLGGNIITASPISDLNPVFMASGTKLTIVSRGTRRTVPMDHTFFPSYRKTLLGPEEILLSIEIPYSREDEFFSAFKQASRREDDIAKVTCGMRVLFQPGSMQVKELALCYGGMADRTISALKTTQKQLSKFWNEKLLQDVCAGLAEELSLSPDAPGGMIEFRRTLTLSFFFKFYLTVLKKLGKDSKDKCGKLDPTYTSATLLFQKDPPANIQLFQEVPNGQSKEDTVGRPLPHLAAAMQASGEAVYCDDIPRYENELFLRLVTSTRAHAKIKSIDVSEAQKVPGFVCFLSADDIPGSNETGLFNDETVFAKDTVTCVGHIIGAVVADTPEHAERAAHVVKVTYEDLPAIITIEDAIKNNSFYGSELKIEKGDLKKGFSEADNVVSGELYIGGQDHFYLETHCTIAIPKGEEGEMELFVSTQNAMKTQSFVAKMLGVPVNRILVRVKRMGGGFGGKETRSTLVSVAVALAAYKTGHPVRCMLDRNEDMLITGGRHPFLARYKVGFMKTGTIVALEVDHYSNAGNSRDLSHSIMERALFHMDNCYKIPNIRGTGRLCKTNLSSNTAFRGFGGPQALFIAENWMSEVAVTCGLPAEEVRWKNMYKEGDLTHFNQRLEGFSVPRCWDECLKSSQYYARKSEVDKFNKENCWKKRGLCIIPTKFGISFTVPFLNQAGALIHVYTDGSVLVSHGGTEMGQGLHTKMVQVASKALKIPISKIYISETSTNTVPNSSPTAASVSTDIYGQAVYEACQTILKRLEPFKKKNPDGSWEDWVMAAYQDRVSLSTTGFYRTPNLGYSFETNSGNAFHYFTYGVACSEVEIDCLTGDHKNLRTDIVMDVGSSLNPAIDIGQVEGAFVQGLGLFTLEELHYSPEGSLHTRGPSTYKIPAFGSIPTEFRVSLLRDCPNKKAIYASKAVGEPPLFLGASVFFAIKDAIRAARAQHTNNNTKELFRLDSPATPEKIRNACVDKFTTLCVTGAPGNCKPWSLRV
SMILES,IC50 (xanthine oxidase) [nM],melting point [°C],inhibition in vivo at 100 mg/kg [1] [%],inhibition in vivo at 100 mg/kg [2] [%]
"N#Cc1cc(-c2ncccc2C(=O)O)ccc1OCC1CCCCC1 [Example 47, 2-(3-Cyano-4-cyclohexylmethoxyphenyl)nicotinic acid]",24,220 to 221,46.3,52.6
N#Cc1cc(-c2ncccc2C(=O)O)ccc1OCCc1ccccc1C(F)(F)F [Example 56],36,187 to 188,72.1,38.7
"N#Cc1cc(-c2ncccc2C(=O)O)ccc1OCCCCc1ccccc1 [Example 62, 2-[3-Cyano-4-(4-phenylbutoxy)phenyl]nicotinic acid]",27,163 to 164,71.1,43.6
"CCC(C)(C)COc1ccc(-c2ncccc2C(=O)O)cc1C#N [Example 72, 2-[3-Cyano-4-(2,2-dimethylbutoxy)phenyl]nicotinic acid]",28,166 to 167,34.2,48.5
"CC(C)(C)CCOc1ccc(-c2ncccc2C(=O)O)cc1C#N [Example 84, 2-[3-Cyano-4-(3,3-dimethylbutoxy)phenyl]nicotinic acid]",18,206 to 207,41.4,69.2

# The next lines start with results.
IC50 (xanthine oxidase) [nM],melting point [°C],SMILES,inhibition in vivo at 100 mg/kg [1] [%],inhibition in vivo at 100 mg/kg [2] [%]
42,183 to 184,"N#Cc1cc(-c2ncccc2C(=O)O)ccc1OCCCc1ccc(C(F)(F)F)cc1 [Example 59, 2-{3-Cyano-4-[3-(4-trifluoromethylphenyl)propoxy]phenyl}nicotinate]",53.2,29.3
24,227 to 228,"N#Cc1cc(-c2ncccc2C(=O)O)ccc1OCC1CCCC1 [Example 75, 2-(3-Cyano-4-cyclopentylmethoxyphenyl)nicotinic acid]",25.7,49.5
24,100 to 101,"CC1(COc2ccc(-c3ncccc3C(=O)O)cc2C#N)CCCCC1 [Example 77, 2-[3-Cyano-4-(1-methylcyclohexylmethoxy)phenyl]nicotinic acid]",39.6,27.8
,221 to 222,"CC(C)(COc1ccc(-c2ncccc2C(=O)O)cc1C#N)c1ccccc1 [Example 78, 2-[3-Cyano-4-(2-methyl-2-phenylpropoxy)phenyl]nicotinic acid]",21.6,19.4
42,231 to 232,"CC(C)(C)COc1ccc(-c2ncccc2C(=O)O)cc1C#N [Example 83, 2-[3-Cyano-4-(2,2-dimethylpropoxy)phenyl]nicotinic acid]",112,56.6
53,,"Cc1ccccc1CCOc1ccc(-c2ncccc2C(=O)O)cc1C#N [Example 102, 2-[3-Cyano-4-(2-methylphenethyloxy)-phenyl]nicotinic acid]",28.4,25.2
